Experimental data published in article PMC7156724, “Potent BRD4 inhibitor suppresses cancer cell-macrophage interaction” (Nature Communications, 2020).
Where “and” joins values, the source holds several entries; their conditions need not be identical. Equal values may be shown once.

Tests used:
[1] = tested on: A375 human melanoma; experiment: A375 human melanoma xenograft tumor growth; format: in vivo, mouse; details: Fig.3e, Group 5, 1 mg/kg PO QD, 5 Days on, 2 Days off / week x3, individual animals
From the text: PO, oral administration; QD, once daily; BID, twice daily. b–d Tumor growth curves for A2780 ovarian tumor (n = 5) (b), TMD8 large B cell lymphoma (n = 6) (c), and B16F10 melanoma (n = 5) (d) bearing mice treated with the indicated compounds once daily for 11-21 days. e, f Tumor growth curves for A375 melanoma (n = 6) (e), and patient-derived xenograft (PDX) of melanoma (n = 5) (f) bearing mice treated with the indicated compounds once daily (5 days on, 2 days off) for 21 days. For d–f, NHWD-870 used is NHWD-870-HCl synthesized using Suzuki coupling route. Data are presented as mean ± SEM in (a, b, d, f) and mean + SEM in (c, e). p values were calculated using two-tailed, unpaired t tests. *p < 0.05; **p < 0.01; ***p < 0.001. Source data are provided as a Source Data file.
4–6 weeks old female BALB/c nude mice were used for most experiments, with the exception of 6–8 weeks old female C57BL/6 mice were used for B16F10 experiments, and 6–8 weeks old male BALB/c nude mice and SD rats were used for pharmacokinetic experiments. All animals were purchased from Shanghai SIPPR-Bk Lab Animal Co., Ltd. All animals were housed under a regimen of 12 h light/12 h dark cycles and specific pathogen-free conditions. 5×10^6 NCI-H526, ES-2, MDA-MB231, A2780, A375, B16F10, and TMD-8 cells (0.1 ml) were injected subcutaneously into female nude mice. The melanoma patient-derived xenograft model was derived from a human melanoma sample (BRAF, NARS and NF1 wild type, and p53 mutant) removed from a patient in Xiangya Hospital. Surgically removed tumor fragments were implanted subcutaneously into female NSG mice. When the tumors grew to ~1000 mm^3, they were harvested and cryopreserved or immediately re-implanted for expansion or experiments. Mouse body weight and tumor sizes were measured every 3 days. Once the tumors grew to 150–200 mm^3, mice were treated with the compounds as described in the Figures. 1 × 10^6 A2780 cells (1 ml) were injected into the abdominal cavity of nude mice. Ascitic volume and tumor weight were measured by an electronic balance. All the procedures were evaluated and approved by the Institutional Animal Care and Use Committee of Central South University and Yale University. […]
We apologize for not clearly labeling the experiments using compounds synthesized using Suzuki coupling method. In the revised manuscript, we modified the text to clearly mark the animal models in Fig 3d-f were tested using NHWD-870 synthesized using Suzuki […]
compared the activity of NHWD-870 synthesized using Stille coupling route with the NHWD-870 synthesized from Suzuki coupling route (Reviewer Figure 1). […]
activity and possible toxicity were identical.
Reviewer Figure 1 NHWD-870 synthesized through Stille or Suzuki route has similar properties in vivo. Tumor bearing mice were treated with 2mg/kg of the indicated compounds, orally administrated once daily for 21 days. Shown are tumor growth curves (a) and body weight change (b) for A375 melanoma bearing mice. […]
986158 in terms of potency, but apart from with the A375 melanocyte cell line, the advance seems relatively moderate. With such similar compounds, the pharmacokinetic properties and ability to accumulate at the desired site is often more important. Figure S6d (prev. Fig. 3d) in the previous

[2] = Body weight change of H526 SCLC tumor bearing mice; details: for Mouse body weight changes (%) from Day 0: 3mg/kg, QDx21D, 3 mg/kg
[3] = tested on: MDA-MB231 triple negative breast cancer (TNBC) cells; experiment: AlamarBlue assay, MDA-MB231; format: cell-based, human; details: for Cellular activity in TNBCs (MDA-MB231), alamarBlue: Fig.1f, replicates
Outline: (§1)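 BRD4 (BD1+BD2) binding to acetylated histone H4 was measured with a TR-FRET kit per the kit protocol. For the AlamarBlue assays, MDA-MB231, NCI-H211 and A375 cells were plated at ~30% confluence, adhered overnight and treated. Resazurin (0.3 mg/ml reagent) was added for 18 h and fluorescence read at ex 530/em 590 nm.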

[4] = tested on: NCI-H211 small cell lung cancer (SCLC) cells; experiment: AlamarBlue assay, NCI-H211; format: cell-based; details: for Cellular activity in SCLCs (H211), alamarBlue: Fig.1e, replicates
Outline: as §1

[5] = tested on: H526 tumors; experiment: Immunofluorescent staining of cleaved caspase 3 and Ki67 in H526 tumors; format: in vivo, mouse; details: treated H526 tumors, independent images
Method: Immunofluorescence staining of tumor sections was performed according to the manufacturer’s instructions. Slides were imaged using a Zeiss Axiovert 200 fluorescence microscope (Carl Zeiss MicroImaging; Thornwood, NY), and images were captured using Openlab3 software (Imprecision, Lexington, MA). Cleaved caspase 3, Ki67, CSF1, and CD68 positive cells were counted with ImageJ version 1.52s[58].
Supplementary Figure 10. NHWD-870 increased tumor apoptosis and inhibite d tumor proliferation.
(a,b) Immunofluorescent staining of cleaved caspase 3 (apoptotic cells, red) and E-Cadherin (cancer cells, […]
green) in vehicle, NHWD-870 or BMS-986158 treated H526 tumors from Figure 4a. Shown are […]
representative images of cleaved caspase 3 positive cells (a) and quantification of cleaved caspase 3 positive […]
cells (b). Scale bar is 30 μm. Data are presented as mean ± SEM from 6 independent images. p values were […]
calculated using two-tailed, unpaired t tests. **, p<0.01; ***, p<0.001. (c,d) Immunofluorescent staining of […]
Ki67 (proliferating cells, red) and E-Cadherin (cancer cells, green) in vehicle, NHWD-870 or BMS-986158 […]
treated H526 tumors from (Figure 4a). Shown are representative images of Ki67 positive cells (c) and […]
quantification of Ki67 positive cells (d). Scale bar is 30 μm. […]
independent images. p values were calculated using two-tailed, unpaired t tests. *, p<0.05; ***, p<0.001. […]

Cc1nnn(C)c1-c1cnc2c3ccc(C(C)(C)O)cc3n([C@H](c3ccccc3)C3CCOCC3)c2c1 [BMS-986158, reference compound]
Tumor volume ([1]; day 0): 150.774 mm3 and 118.553 mm3 and 191.653 mm3 and 150.802 mm3 and 127.386 mm3 and 173.315 mm3
Tumor volume ([1]; day 4): 190.606 mm3 and 233.18 mm3 and 278.289 mm3 and 235.064 mm3 and 184.498 mm3 and 135.54 mm3
Tumor volume ([1]; day 7): 243.772 mm3 and 508.815 mm3 and 374.344 mm3 and 456.749 mm3 and 169.114 mm3 and 146.329 mm3
Tumor volume ([1]; day 11): 541.178 mm3 and 982.065 mm3 and 955.744 mm3 and 627.932 mm3 and 275.862 mm3 and 357.353 mm3
Tumor volume ([1]; day 14): 840.395 mm3 and 1426.45 mm3 and 1137.31 mm3 and 1074.5 mm3 and 373.109 mm3 and 473.708 mm3
Tumor volume ([1]; day 18): 1260.47 mm3 and 1267.54 mm3 and 1188.69 mm3 and 1129.05 mm3 and 402.127 mm3 and 719.097 mm3
Tumor volume ([1]; day 21): 1603.7 mm3 and 1878.69 mm3 and 1789.35 mm3 and 1645.42 mm3 and 683.962 mm3 and 956.808 mm3
Body weight change (%) ([2]; 3mg/kg,QD, day 0 and day 20 or the last available data point, individual mice): -8.559% and -23.2889% and -19.9501% and -12.3957%
Mouse body weight changes (%) from Day 0 ([2]; Day 3, individual mice): -2.33% and 1.06% and -4.40% and 1.07% and 0.98% and -1.46%
Mouse body weight changes (%) from Day 0 ([2]; Day 7, individual mice): -0.51% and -2.62% and -8.04% and -1.69% and -7.56% and -3.13%
Mouse body weight changes (%) from Day 0 ([2]; Day 10, individual mice): 0.08% and -4.17% and 1.65% and -15.38% and -17.07% and -3.30%
Mouse body weight changes (%) from Day 0 ([2]; Day 14, individual mice): -5.26% and -0.68% and -6.36% and 0.13% and -8.04% and -3.28%
Mouse body weight changes (%) from Day 0 ([2]; Day 17, individual mice): -6.72% and -1.06% and -1.00% and -0.31% and -23.29% and -5.11%
Mouse body weight changes (%) from Day 0 ([2]; Day 20, individual mice): -12.40% and -8.56% and -1.00% and 1.16% and -19.95%
body weight loss ([2]; H526 SCLC tumor bearing mice, 3mg/kg QD): about 11%
Cellular activity in TNBCs (MDA-MB231), alamarBlue ([3]; concentration 0.15): 20.45 and 20.15
Cellular activity in TNBCs (MDA-MB231), alamarBlue ([3]; concentration 0.6): 51.35 and 50.6
Cellular activity in TNBCs (MDA-MB231), alamarBlue ([3]; concentration 1): 73.39 and 72.09
Cellular activity in TNBCs (MDA-MB231), alamarBlue ([3]; concentration 1.5): 83.55 and 84.39
Cellular activity in TNBCs (MDA-MB231), alamarBlue ([3]; concentration 2): 88.19 and 87.76
Cellular activity in TNBCs (MDA-MB231), alamarBlue ([3]; concentration 2.5): 88.65 and 88.13
Cellular activity in TNBCs (MDA-MB231), alamarBlue ([3]; concentration 3): 90.46 and 90.37
Cellular activity in TNBCs (MDA-MB231), alamarBlue ([3]; concentration -0.3): 6.95 and 6.37
Cellular activity in TNBCs (MDA-MB231), alamarBlue ([3]; concentration -0.9): 4.15 and 1.05
IC50 ([3]; Homo sapiens, MDA-MB-231, 72 h, 72 h treatment, nM, read-out: IC50, cellular activity in MDA-MB231 (alamarBlue)): 5 nM
Cellular activity in SCLCs (H211), alamarBlue ([4]; concentration 0.0169701): 0.078 and 7.88
Cellular activity in SCLCs (H211), alamarBlue ([4]; concentration 0.0398488): 0.019 and 6.06
Cellular activity in SCLCs (H211), alamarBlue ([4]; concentration 0.137272): 0.036 and 13.2
Cellular activity in SCLCs (H211), alamarBlue ([4]; concentration 0.614394): 28.16 and 35.58
Cellular activity in SCLCs (H211), alamarBlue ([4]; concentration 1.09152): 74.14 and 79.88
Cellular activity in SCLCs (H211), alamarBlue ([4]; concentration 1.56864): 88.17 and 88.8
Cellular activity in SCLCs (H211), alamarBlue ([4]; concentration 2.04576): 89.55 and 89.3
Cellular activity in SCLCs (H211), alamarBlue ([4]; concentration 3): 86.89 and 89.73
Cellular activity in SCLCs (H211), alamarBlue ([4]; concentration column prints 2.52288): 87.67 and 88.48
IC50 ([4]; Homo sapiens, NCI-H211, 72 h, 72 h treatment, nM, read-out: IC50, cellular activity in NCI-H211 (alamarBlue)): 6.6 nM
% of KI67 (Ki67 positive cells) [5]: 15% and 17% and 13% and 16% and 12%
